Patent publication US4800199A, “3-[2-thiazoloamino]-8-oxo-7-substituted-5-thia-1-a zabicyclo-[4.2.0]oct-2-ene-2-carboxylic acid and salts thereof and diphenylmethyl esters thereof” (American Cyanamid Company, priority 1986, dated 1989)
In brackets after ≈: the same amount, converted by molar mass.

Key:
Experiment in all cases: In vitro antibacterial activity, Mueller-Hinton agar dilution
Type in all cases: cell-based
[1] = test system: Mycobacterium smegmatis ATCC 607; conditions: Mycolicibacterium smegmatis, ATCC607, read-out: Minimal Inhibitory Concentration
Description: (§1) The results of this test on representative compounds of this invention appear in Table I.

[2] = test system: Enterococcus OSU 75-1; conditions: OSU751, read-out: Minimal Inhibitory Concentration
Description: as §1

[3] = test system: Bacillus subtilis ATCC 6633; conditions: ATCC6633, read-out: Minimal Inhibitory Concentration
Description: as §1

[4] = test system: Saccharomyces Y 15; conditions: Y15, read-out: Minimal Inhibitory Concentration
Description: as §1

[5] = test system: Staphylococcus aureus LL No. 45; conditions: LLNO.45, read-out: Minimal Inhibitory Concentration
Description: as §1

[6] = test system: Klebsiella pneumoniae AD; conditions: read-out: Minimal Inhibitory Concentration
Description: as §1

[7] = test system: Pseudomonas aeruginosa 12-4-4; conditions: 1244, read-out: Minimal Inhibitory Concentration
Description: as §1

[8] = test system: Micrococcus lutea PC 1001; conditions: PC1001, read-out: Minimal Inhibitory Concentration
Description: as §1

[9] = test system: Escherichia coli ATCC 25922; conditions: ATCC25922, read-out: Minimal Inhibitory Concentration
Description: as §1

[10] = test system: Bacillus cereus LL No. 4; conditions: LLNO.4, read-out: Minimal Inhibitory Concentration
Description: as §1

[11] = test system: Streptococcus mutans ATCC 27352-1; conditions: ATCC27352, read-out: Minimal Inhibitory Concentration
Description: as §1

[12] = test system: Streptococcus sanguis G-9B (a); conditions: read-out: Minimal Inhibitory Concentration
Description: as §1

[13] = test system: Salmonella QHC 77-3; conditions: QHC773, read-out: Minimal Inhibitory Concentration
Description: as §1

[14] = test system: Streptococcus faecalis ATCC 29212; conditions: Enterococcus faecalis, ATCC29212, read-out: Minimal Inhibitory Concentration
Description: as §1

[15] = test system: Serratia Tul 78-15; conditions: TUL7815, read-out: Minimal Inhibitory Concentration
Description: as §1

[16] = test system: Acinetobacter STFD 79-17; conditions: STFD7917, read-out: Minimal Inhibitory Concentration
Description: as §1

[17] = test system: Staphylococcus aureus ATCC 25923; conditions: ATCC25923, read-out: Minimal Inhibitory Concentration
Description: as §1

[18] = test system: Streptococcus mutans BHI (b); conditions: read-out: Minimal Inhibitory Concentration
Description: as §1

[19] = test system: Staphylococcus epidermidis CMC 83-56; conditions: CMC8356, read-out: Minimal Inhibitory Concentration
Description: as §1

[20] = test system: Proteus morganii K79-25; conditions: Morganella morganii, K7925, read-out: Minimal Inhibitory Concentration
Description: as §1

[21] = test system: Citrobacter freundii K81-28; conditions: K8128, read-out: Minimal Inhibitory Concentration
Description: as §1

[22] = test system: Enterobacter cloacae K79-16; conditions: K7916, read-out: Minimal Inhibitory Concentration
Description: as §1

[23] = test system: Staphylococcus aureus LL No. 14; conditions: LLNO.14, read-out: Minimal Inhibitory Concentration
Description: as §1

[24] = test system: Staphylococcus epidermidis ATCC 12228; conditions: ATCC12228, read-out: Minimal Inhibitory Concentration
Description: as §1

[25] = test system: Staphylococcus aureus Smith; conditions: read-out: Minimal Inhibitory Concentration
Description: as §1

[26] = test system: Enterococcus SM 77-15; conditions: SM7715, read-out: Minimal Inhibitory Concentration
Description: as §1

[27] = test system: Escherichia coli 311; conditions: read-out: Minimal Inhibitory Concentration
Description: as §1

[28] = test system: Pseudomonas aeruginosa ATCC 27853; conditions: ATCC27853, read-out: Minimal Inhibitory Concentration
Description: as §1

[29] = test system: Staphylococcus aureus LL No. 27; conditions: LLNO.27, read-out: Minimal Inhibitory Concentration
Description: as §1

[30] = test system: Candida albicans CA 300; conditions: CA300, read-out: Minimal Inhibitory Concentration
Description: as §1

| SMILES | MIC [1] [µg/mL] | MIC [2] [µg/mL] | MIC [3] [µg/mL] | MIC [4] [µg/mL] | MIC [5] [µg/mL] | MIC [6] [µg/mL] | MIC [7] [µg/mL] | MIC [8] [µg/mL] | MIC [9] [µg/mL] | MIC [10] [µg/mL] | MIC [11] [µg/mL] | MIC [12] [µg/mL] | MIC [13] [µg/mL] | MIC [14] [µg/mL] | MIC [15] [µg/mL] | MIC [16] [µg/mL] | MIC [17] [µg/mL] | MIC [18] [µg/mL] | MIC [19] [µg/mL] | MIC [20] [µg/mL] | also measured |
| --- | --- | --- | --- | --- | --- | --- | --- | --- | --- | --- | --- | --- | --- | --- | --- | --- | --- | --- | --- | --- | --- |
| CCOC(=O)c1csc(N[C@@H]2C(=O)N3C(C(=O)O)=C(COC(C)=O)CS[C@H]23)n1 [Example 2] | 128 (≈ 299 µM) | 128 (≈ 299 µM) | 4 (≈ 9.36 µM) | 128 (≈ 299 µM) | 1 (≈ 2.34 µM) | 512 (≈ 1200 µM) | > 512 | 4 (≈ 9.36 µM) | > 512 | 64 (≈ 150 µM) | ≤ 0.25 | 4 (≈ 9.36 µM) | > 512 | 128 (≈ 299 µM) | > 512 | > 512 | 1 (≈ 2.34 µM) | ≤ 0.25 | 0.5 (≈ 1.17 µM) | > 512 | MIC [21]: 512 µg/mL (≈ 1200 µM); MIC [22]: > 512 µg/mL; MIC [23]: 1 µg/mL (≈ 2.34 µM); MIC [24]: 0.5 µg/mL (≈ 1.17 µM); MIC [25]: 1 µg/mL (≈ 2.34 µM); MIC [26]: 128 µg/mL (≈ 299 µM); MIC [27]: 512 µg/mL (≈ 1200 µM); MIC [28]: > 512 µg/mL; MIC [29]: 4 µg/mL (≈ 9.36 µM); MIC [30]: > 512 µg/mL |
| CC(=O)OCC1=C(C(=O)O)N2C(=O)[C@@H](Nc3nc(-c4ccccc4)cs3)[C@H]2SC1 [Example 3, (6R-trans)-3-[(Acetyloxy)methyl]-8-oxo-7-[(4-phenyl-2-thiazolyl)amino]-5-thia-1-azabicyclo[4.2.0]oct-2-ene-2-carboxylic acid] | 256 (≈ 593 µM) | 256 (≈ 593 µM) | 8 (≈ 18.5 µM) | 256 (≈ 593 µM) | 4 (≈ 9.27 µM) | > 512 | > 512 | 8 (≈ 18.5 µM) | > 512 | 128 (≈ 297 µM) | 8 (≈ 18.5 µM) | 1 (≈ 2.32 µM) | > 512 | 256 (≈ 593 µM) | > 512 | > 512 | 8 (≈ 18.5 µM) | 0.5 (≈ 1.16 µM) | 8 (≈ 18.5 µM) | > 512 | MIC [21]: > 512 µg/mL; MIC [22]: > 512 µg/mL; MIC [23]: 4 µg/mL (≈ 9.27 µM); MIC [24]: 16 µg/mL (≈ 37.1 µM); MIC [25]: 8 µg/mL (≈ 18.5 µM); MIC [26]: 256 µg/mL (≈ 593 µM); MIC [27]: > 512 µg/mL; MIC [28]: > 512 µg/mL; MIC [29]: 16 µg/mL (≈ 37.1 µM); MIC [30]: > 512 µg/mL |
